Experimental data as given in ChEMBL document CHEMBL2311327, “Anti-liver fibrotic lignans from the fruits of Schisandra arisanensis and Schisandra sphenanthera” (Bioorg Med Chem Lett, 2013).

test system: HSC-T6; assay: Inhibition of NF-kappaB (unknown origin) expressed in TNFalpha-stimulated rat HSC-T6 cells assessed as reduction of HSC activation at 10 ug/ml treated 30 mins before TNFalpha stimulation measured after 6 hrs by bioluminescence based luciferase reporter gene assay relative to control; format: cell-based; settings: Homo sapiens

**Q.** For SILYMARIN, which inhibition is on record?
**A.** Its inhibition is 51.4%.

test system: not listed separately; assay: Cytotoxicity against rat HSC-T6 cells; format: cell-based; settings: not given

**Q.** With `COc1cc(C[C@@H](C)[C@@H](C)Cc2cc(O)c(OC)c(OC)c2)cc(O)c1OC` [PREGOMISIN] as the molecule, how does the Activity read?
**A.** Its Activity is “Toxic”.

**Q.** Which Activity does the source give for `COc1cc2c(c(OC)c1OC)-c1c(cc3c(c1OC)OCO3)C[C@H](C)[C@](C)(O)[C@H]2OC(=O)c1ccccc1` [GOMISIN C] here?
**A.** The Activity was “Toxic”.

test system: HSC-T6; assay: Inhibition of NF-kappaB (unknown origin) expressed in TNFalpha-stimulated rat HSC-T6 cells assessed as reduction of HSC activation at 50 ug/ml treated 30 mins before TNFalpha stimulation measured after 6 hrs by bioluminescence based luciferase reporter gene assay relative to control; format: cell-based; settings: not given

**Q.** Which inhibition does the source give for `C/C=C(/C)C(=O)O[C@H]1c2cc(OC)c(OC)c(OC)c2-c2c(cc3c(c2OC)OCO3)C[C@H](C)[C@@]1(C)O` here?
**A.** Its inhibition is 6.64%.

**Q.** With `COc1c2c(cc3c1-c1c(cc4c(c1OC)OCO4)[C@H](OC(=O)c1ccccc1)[C@@](C)(O)[C@@H](C)C3)OCO2` as the molecule, how does the inhibition read?
**A.** Its inhibition is 71.8%.

**Q.** With `COc1cc2c(c(OC)c1OC)-c1c(cc(O)c(OC)c1OC)C[C@H](C)[C@](C)(O)[C@@H]2OC(=O)c1ccccc1` as the molecule, how does the inhibition read?
**A.** Its inhibition is 27.9%.

**Q.** Which inhibition does the source give for `COc1cc2c(c(OC)c1OC)-c1c3cc4c(c1O[C@](C)([C@H](C)CO)C(=O)O[C@@H]2[C@@H](C)[C@@H](C)C3)OCO4` here?
**A.** Its inhibition is 4.87%.

**Q.** For `C/C=C(\C)C(=O)O[C@H]1c2cc(OC)c(OC)c(OC)c2-c2c(cc(O)c(OC)c2OC)C[C@H](C)[C@]1(C)O`, which inhibition is on record?
**A.** The inhibition was 43.2%.

**Q.** For `COc1cc2c(c(O)c1OC)-c1c(cc(OC)c(OC)c1OC)C[C@@H](C)[C@@H](C)C2`, which inhibition is on record?
**A.** The inhibition was 69%.

**Q.** Which inhibition does the source give for `COc1cc([C@@H]2c3cc(OC)c(O)cc3C(=O)[C@@H](C)[C@H]2C)ccc1O` here?
**A.** The inhibition was 46.4%.

**Q.** With `C/C=C(/C)C(=O)O[C@H]1c2cc3c(c(OC)c2-c2c(cc4c(c2OC)OCO4)C[C@H](C)[C@]1(C)O)OCO3` as the molecule, how does the inhibition read?
**A.** The inhibition was 34.8%.

**Q.** For `COc1cc2c(c(OC)c1OC)-c1c(cc(O)c(OC)c1OC)C[C@H](C)[C@H](C)[C@@H]2O`, which inhibition is on record?
**A.** The inhibition was 49.2%.
